Read-outs that look alike come from different tables or passages of the source.
What was measured:
E. coli = format: cell-based, Escherichia coli; settings: 24 h contact time
Procedure: (§1) Escherichia coli ATCC 11229 (Culti-loops, Remel Europe, Dartford, Kent, UK) and Pseudomonas aeruginosa ATCC 15442 (Cuti-loops, Remel Europe, Dartford, Kent, UK) were selected as model Gram-negative organisms for the challenge testing of the antimicrobial coatings. Each bacterial strain was streaked for isolated colonies on Tryptic Soy Agar (TSA) plates (Difco, Becton Dickinson, Sparks, Md., U.S.A.) and incubated at 37° C. for 12 to 18 hours. Broth cultures were prepared by first picking 1-2 isolated colonies from TSA plates and inoculating 5 mL Tryptic Soy Broth (TSB; Difco, Becton Dickinson, Sparks, Md., U.S.A.) in a 16 mm test tube. This culture was grown in a shaking water bath at 150 RPM for 8 hours at 37° C. After the eight hours, 125 μL of this culture was added to 50 mL of TSB in a side-arm Klett flask and grown for approximately 8 hours in shaking water bath (150 RPM) at 37° C. The bacterial broths were grown to an A590 of 1.2-1.5, which correlated to approximately 10^9 CFU (colony forming units)/mL. 25 mL of this broth were transferred to a sterile 30 mL Oakridge tube and centrifuged at 12,000×g for 10 minutes at 4° C. (Sorval SS34 rotor) to pelletize the bacteria. The bacterial pellet was washed once and resuspended in 25 mL of phosphate buffer solution (PBS; BBL, FTA Hemaglutination Buffer, Becton Dickinson, Sparks, Md., U.S.A.). The suspension was diluted with PBS to achieve the target range of 10^5-10^6 CFU/mL and used to inoculate the slides containing antibacterial coatings.
Xylene/methanol (5:1 by weight) is used to dissolve the silver surfactants to facilitate homogeneously mixing with the alkyd resin composition.
A minus sign (−) denotes no growth, a plus sign (+) denotes confluent growth, and a capital P (P) denotes […].
Xylene/methanol (5:1 by weight) is used to dissolve the silver surfactants to facilitate homogeneously mixing with the acrylic resin composition.
The same laboratory experimental solvent based acrylic paint described in Example 34 is used to challenge E. coli by adding various levels of the invention silver anionic surfactants as described in Example 34.
A commercially available 2K epoxy resin paint is obtained from a local paint store (Sherwin Williams High Solids Epoxy Tile Clad HS; Part A B62WC11; Part B B60VZ75, The Sherwin Williams Company) and the same silver anionic surfactants described in Example 35 are used to prepare test coatings on microscope slides containing various levels of silver ion. These surfactants are dissolved in xylene/methanol (5:1 by weight) to facilitate their quantitative addition to the coating mixture.

E. coli ATCC 11229 = tested on: E. coli ATCC 11229
Procedure: as §1
The glass slides are then washed with acetone and water.
The 10% substitution on this weight basis corresponds to substitution of one tenth of the total surfactant weight or to 3% of the total composition weight.
Bacterial cultures as prepared and described in Example 12 are applied to the surfactant polymer coated slides as prepared and described in Example 26. All inoculations are performed in a laminar flow hood. Sterilized slides are placed into a sterile Petri dish. Then 0.5 mL of the prepared bacterial suspensions is pipetted directly onto the slide, which spreads across the surface of the coating but remains on top of the slide.
The surviving bacteria from the exposures described in Example 27 are determined as follows: At each time point, 25 mL of sterile PBS is pipetted into the Petri dish completely submerging the slide, and a sterile plastic inoculating loop is used to release any viable bacteria remaining on the surface of the coating. Samples are plated onto TSA plates, and incubated at 37° C. for at least 24 h. Plates containing between 30 and 300 isolated colonies are counted.

S. aureus [1] = format: cell-based, Staphylococcus aureus; settings: laboratory acrylic clearcoat, 24 h contact time
From the text: A laboratory experimental solvent based acrylic paint is formulated and then used to challenge S. aureus by adding various levels of the invention silver anionic surfactants as described in Example 33. A binder is made by solution polymerization of butyl acrylate (25% w/w), methylmethacrylate (73.5% w/w), and methacrylic acid (1.5% w/w) in amylacetate using thermal initiation. This solution polymer is then used to make a 60% solids clearcoat binder in xylene/methanol (5:1 by weight). The silver anionic surfactants are dissolved in this same xylene/methanol mixture prior to addition to the clearcoat.

S. aureus [2] = settings: 24 h contact time
From the text: PU formulated at a TDI: PPG mole ratio of 1.5:1 are post treated with water.

[3] = 0.061% weight w/w Ag in coating (first column 0.113), polyurethane, microscope slides
[4] = 0.122% weight w/w Ag in coating (first column 0.226), polyurethane, microscope slides
[5] = 24 hour exposure, polyurethane coated lantern slides
[6] = […] weight w/w Ag in coating (first column 0.0574), polyurethane, microscope slides

CCCCC(CC)COC(=O)CC(C(=O)OCC(CC)CCCC)S(=O)(=O)[O-].[Ag+] (centres unmarked) [AgAOT]
E. coli growth on coating (E. coli; alkyd resin paint, 0.0012 weight % Ag in coating): + | E. coli growth on coating (E. coli; alkyd resin paint, 0.003 weight % Ag in coating): + | E. coli growth on coating (E. coli; alkyd resin paint, 0.012 weight % Ag in coating): − | E. coli growth on coating (E. coli; alkyd resin paint, 0.03 weight % Ag in coating): − | E. coli growth on coating (E. coli; alkyd resin paint, 0.06 weight % Ag in coating): − | E. coli growth on coating (E. coli; alkyd resin paint, 0.12 weight % Ag in coating): − | Silver level effective at preventing any growth (E. coli; alkyd resin paint): 0.012 % w/w | Silver level partially effective (E. coli; alkyd resin paint): 0.006 % w/w | E. coli growth on coating (E. coli; commercial 2K epoxy paint, 0.0012 weight % Ag in coating): + | E. coli growth on coating (E. coli; commercial 2K epoxy paint, 0.003 weight % Ag in coating): + | E. coli growth on coating (E. coli; commercial 2K epoxy paint, 0.006 weight % Ag in coating): + | E. coli growth on coating (E. coli; commercial 2K epoxy paint, 0.012 weight % Ag in coating): + | E. coli growth on coating (E. coli; commercial 2K epoxy paint, 0.03 weight % Ag in coating): + | E. coli growth on coating (E. coli; commercial 2K epoxy paint, 0.06 weight % Ag in coating): − | E. coli growth on coating (E. coli; commercial 2K epoxy paint, 0.12 weight % Ag in coating): − | Silver level giving complete inhibition of growth (E. coli; commercial 2K epoxy paint): 0.06 % w/w | E. coli growth on coating (E. coli; commercial solvent borne acrylate paint, 0.0012 weight % Ag in coating): + | E. coli growth on coating (E. coli; commercial solvent borne acrylate paint, 0.003 weight % Ag in coating): + | E. coli growth on coating (E. coli; commercial solvent borne acrylate paint, 0.006 weight % Ag in coating): + | E. coli growth on coating (E. coli; commercial solvent borne acrylate paint, 0.012 weight % Ag in coating): + | E. coli growth on coating (E. coli; commercial solvent borne acrylate paint, 0.06 weight % Ag in coating): − | E. coli growth on coating (E. coli; commercial solvent borne acrylate paint, 0.12 weight % Ag in coating): − | Silver level partially effective (E. coli; commercial solvent borne acrylic paint): 0.03 % Ag w/w | E. coli growth on coating (E. coli; laboratory solvent borne acrylate paint, 0.0012 weight % Ag in coating): + | E. coli growth on coating (E. coli; laboratory solvent borne acrylate paint, 0.003 weight % Ag in coating): + | E. coli growth on coating (E. coli; laboratory solvent borne acrylate paint, 0.006 weight % Ag in coating): + | E. coli growth on coating (E. coli; laboratory solvent borne acrylate paint, 0.012 weight % Ag in coating): + | E. coli growth on coating (E. coli; laboratory solvent borne acrylate paint, 0.03 weight % Ag in coating): + | E. coli growth on coating (E. coli; laboratory solvent borne acrylate paint, 0.06 weight % Ag in coating): − | E. coli growth on coating (E. coli; laboratory solvent borne acrylate paint, 0.12 weight % Ag in coating): − | CFU/mL of E. coli at 12 hours (E. coli ATCC 11229; [3]): 0, 0, 0 CFU/mL | CFU/mL of E. coli at 24 hours (E. coli ATCC 11229; [3]): 0, 0, 0 CFU/mL | CFU/mL of E. coli at 12 hours (E. coli ATCC 11229; [4]): 0, 0, 0 CFU/mL | CFU/mL of E. coli at 24 hours (E. coli ATCC 11229; [4]): 0, 0, 0 CFU/mL | CFU/mL of E. coli at 24 hours (E. coli ATCC 11229; 0.5% substituted for sodium salt in coating ([…] weight silver), polyurethane coated lantern slides): 0; 0 CFU/mL | CFU/mL of E. coli at 24 hours (E. coli ATCC 11229; 1.0% substituted for sodium salt in coating (0.061% weight silver), polyurethane coated lantern slides): 0; 0 CFU/mL | CFU/mL of E. coli at 24 hours (E. coli ATCC 11229; 3.0% substituted for sodium salt in coating ([…] weight silver), polyurethane coated lantern slides): 0; 0 CFU/mL | CFU/mL of E. coli at 24 hours (E. coli ATCC 11229; 10.0% substituted for sodium salt in coating (0.61% weight silver), polyurethane coated lantern slides): 0; 0 CFU/mL | Overall silver level effective as bactericide (E. coli ATCC 11229; 12 hours of exposure): 0.06 % weight silver relative to coating weight | Ag+ level resulting in complete killing of the E. coli (E. coli ATCC 11229; [5]): ≥ 0.031 % Ag+ relative to coating weig | Level of substitution resulting in complete killing of the E. coli (E. coli ATCC 11229; [5]): ≥ 0.5 % weight relative to the 30% N | Overall silver level effective as bactericide (E. coli ATCC 11229; 24 hours of exposure): 0.006 % weight silver relative to coating weight | CFU/mL of E. coli at 24 hours (E. coli ATCC 11229; […] weight w/w Ag in coating (first column 0.0226), polyurethane, microscope slides): 0, 0, 0 CFU/mL | CFU/mL of E. coli at 12 hours (E. coli ATCC 11229; [6]): 0, 0, 0 CFU/mL | CFU/mL of E. coli at 24 hours (E. coli ATCC 11229; [6]): 0, 0, 0 CFU/mL | Silver level with partial growth (S. aureus [1]): this lowest level | S. aureus growth on PU composition (S. aureus [2]; 0.01 weight % Ag in PU composition): + | S. aureus growth on PU composition (S. aureus [2]; 0.03 weight % Ag in PU composition): + | S. aureus growth on PU composition (S. aureus [2]; 0.10 weight % Ag in PU composition): + | S. aureus growth on PU composition (S. aureus [2]; 0.30 weight % Ag in PU composition): − | S. aureus growth on PU composition (S. aureus [2]; 1.0 weight % Ag in PU composition): − | S. aureus growth on PU composition (S. aureus [2]; 3.0 weight % Ag in PU composition): − | Silver level providing complete inhibition (S. aureus [2]; PU composition): 0.30 % w/w silver

From patent publication US20090060984A1, “ANIONIC SURFACTANTS LETHAL TO GRAM-POSITIVE BACTERIA” (priority 2007, published 2009)
